Results taken from patent US20140227326A1, “METHOD OF DELIVERING NASAL SPRAY” (priority 2004, published 2014).

Assay: Pharmacokinetic testing of olopatadine 0.6% nasal spray in clinical trials (plasma level by HPLC)
Assay type: in vivo
Conditions: human subjects, formulation containing 0.6% olopatadine, two sprays/nostril twice per day, intranasal

CN(C)CC/C=C1/c2ccccc2COc2ccc(CC(=O)O)cc21 [olopatadine, Z-11-(3-dimethylaminopropylidene)-6,11-dihydrodibenz[b,e]oxepine-2-acetic acid]
time post-dose at which peak plasma concentration was measured: 0.5 to 2 h
peak plasma concentration of olopatadine (C.), observed range (plasma, high performance liquid chromatography): 14.4 to 35.3 ng/mL
peak plasma concentration of olopatadine (C.), mean (plasma, mean +/- spread): 23.3 ± 6.1 ng/mL
